Source: patent US8268854B2, “Aza-beta-carbolines and methods of using same” (The UWM Research Foundation, Inc., priority 2008, dated 2012)

Experiments:
GABAA receptor = assay: PDSP radioligand binding assay (Example 6); details: Example 6, written in present tense
Protocol: Primary and secondary radioligand binding assays are performed. In general, the primary assay is run at very high ligand (compound) concentration as a broad screen to determine whether a compound binds to a particular receptor. If greater than 50% inhibition at 10 μM (high concentration of compound) at a particular receptor is determined, a secondary assay is performed on that receptor. Data from the secondary assay is the binding affinity (Ki value).
A solution of the compound to be tested is prepared as a 1 mg/ml stock in Standard Binding Buffer or dimethyl sulfoxide (DMSO) according to its solubility. A similar stock of a reference compound (positive control) is also prepared. […]
The 250 μL reactions are incubated at room temperature and shielded from light (to prevent photolysis of light-sensitive ligands) for 1.5 hours, then harvested by rapid filtration onto Whatman GF/B glass fiber filters pre-soaked with 0.3% polyethyleneimine using a 96-well Brandel harvester. […] The tubes are capped, labeled, and counted by liquid scintillation counting. For higher throughput assays, bound radioactivity is harvested onto 0.3% polyethyleneimine-treated, 96-well filter mats using a 96-well Filtermate harvester. The filter mats are dried, then scintillant is melted onto the filters, and the radioactivity retained on the filters is counted in a Microbeta scintillation counter. […]

[1] = target: T1, GABAA receptor α2 subtype with β2 and γ2 subunits (Homo sapiens, UniProt P18507+P47869); assay: Competition binding assay with [3H]flunitrazepam; details: [3H]flunitrazepam, α2β2γ2, HEKT cells; read-out: GABAA RECEPTOR BINDING α2
T1 construct: expressed in transfected cells; host or cells: HEKT cell line, transient transfection with Fugene 6
Text: (§1) Bound radioactivity is quantified by liquid scintillation counting.

[2] = target: T2, GABAA receptor α5 subtype with β2 and γ2 subunits (Homo sapiens, UniProt P18507+P31644); assay: Competition binding assay with [3H]flunitrazepam; details: [3H]flunitrazepam, α5β2γ2, HEKT cells; read-out: GABAA RECEPTOR BINDING α5
T2 construct: expressed in transfected cells; host or cells: HEKT cell line, transient transfection with Fugene 6
Text: as §1

[3] = target: T3, GABAA receptor α3 subtype with β2 and γ2 subunits (Homo sapiens, UniProt P18507+P34903); assay: Competition binding assay with [3H]flunitrazepam; details: [3H]flunitrazepam, α3β2γ2, HEKT cells; read-out: GABAA RECEPTOR BINDING α3
T3 construct: expressed in transfected cells; host or cells: HEKT cell line, transient transfection with Fugene 6
Text: as §1

[4] = target: T4, GABAA receptor α1 subtype with β2 and γ2 subunits (Homo sapiens, UniProt P14867+P18507); assay: Competition binding assay with [3H]flunitrazepam; details: [3H]flunitrazepam, α1β2γ2, HEKT cells; read-out: GABAA RECEPTOR BINDING α1
T4 construct: expressed in transfected cells; host or cells: HEKT cell line, transient transfection with Fugene 6
Text: as §1

[5] = tested on: BzR/GABAa-ergic receptors; details: Example 8, written in present tense

| Compound | binding to GABAA receptor (in words) (GABAA receptor) | Ki [1] | Ki [2] | Ki [3] | Ki [4] | binding to the BzR/GABAa-ergic receptors (in words) [5] |
| --- | --- | --- | --- | --- | --- | --- |
| CC(C)(C)OC(=O)c1cc2c(cn1)[nH]c1cnccc12 [Compound 3, Tert-Butyl pyridine[4′,5′-5,4]pyrrolo[2,3-c]pyridine-3-carboxylate] | shown to bind to GABAA receptor | 2.5 nM | 3.7 nM | 3.4 nM | 2.9 nM | – |
| tert-Butyl pyridine[4′,5′-4,5]pyrrolo[3,2-c]pyridine-8-carboxylate [Compound 1] | shown to bind to GABAA receptor | – | – | – | – | potently binds |
